Data: patent US7358076B2, “Sublancin lantibiotic produced by Bacillus subtilis 168” (The University of Maryland, priority 1997, dated 2008)

Assays:
[1] = tested on: B. cereus T spores; test: halo assay on agar plates sprayed with spores, extended incubation; format: cell-based, Bacillus cereus; conditions: lawns from sprayed B. cereus T spores, incubation for several days, data not shown
Protocol: Two methods were employed to assay the activity of sublancin 168; a halo assay on plates, and a liquid assay in culture tubes. Both methods used Bacillus cereus T spores as the test organism. 250 mg of spores, prepared as previously described (12), were suspended in 30 mL of distilled water with a glass homogenizer, heat-shocked at 65° C. for 2 hr, centrifuged, and resuspended in 50% ethanol. This suspension was sprayed onto the surface of Medium A-containing agar plates using a Sigma spray unit (St. Louis Mo.). Prior to spraying, 10-20 μL volumes of serial dilutions of purified sublancin were spotted onto the plate. […] growth of the spores, and the diameters of the halos caused by sublancin inhibition were measured, and the minimum amount of peptide that was required to give an observable halo was noted. For the liquid assay, heat-shocked spores were suspended in sterile water to a final concentration of 2 mg/mL, and then added to culture tubes containing 1% BACTO®-tryptone, 0.1 M TRIS®-Pi, pH 6.8. Prior to adding the spores, serial dilutions of sublancin were added to the tubes. The final concentration of spores was 0.1 mg/mL. The tubes were incubated at 37° C. for 3 hr, using sufficient shaking to keep the spores well suspended. […]
The ability of sublancin to inhibit bacterial spore outgrowth was also determined. […]

[2] = tested on: B. cereus T spores; conditions: cited from earlier work
[3] = tested on: B. cereus T spores; conditions: from reference (30); cited from earlier work

C=C1NC(=O)CC[C@@H](C(=O)O)NC(=O)[C@H](NC(=O)[C@H](CCCCN)NC(=O)[C@@H](N)Cc2c[nH]c3ccccc23)CSC[C@@H](C(=O)N[C@@H]2C(=O)N3CCC[C@H]3C(=O)NCC(=O)N[C@H](C(=O)N[C@H](C(=O)N[C@@H]3C(=O)NCC(=O)N[C@@H](C)C(=O)N[C@@H](CC(C)C)C(=O)N[C@@H](CCC(N)=O)C(=O)N/C(=C/C)C(=O)N[C@H](C(=O)N[C@@H](Cc4ccccc4)C(=O)N[C@@H](CC(C)C)C(=O)N[C@@H](CCC(N)=O)C(=O)N[C@@H]4C(=O)N[C@@H](CC(C)C)C(=O)N[C@H]5C(=O)N[C@@H](CSC4C)C(=O)NC(=O)[C@H](CC(N)=O)N[C@H](C(=O)N[C@@H](CCCCN)C(=O)N[C@H](C(=O)NC(=C)C(=O)N[C@@H](CCCCN)C(=O)O)[C@@H](C)CC)CSC5C)CSC3C)C(C)C)CSC2C)N[C@@H](CC(C)C)C(=O)NC1=O (stereo partly shown) [subtilin]
appearance of halos after extended incubation of the plates [1]: remained completely clear
concentration required to inhibit outgrowth of these same spores ([2]; B. cereus T spores, from references (27,29)): 80 nM
corresponding ratio, spore outgrowth inhibition versus inhibition of exponentially growing cells ([2]; comparison value for subtilin, same methods as reference (27)): 30 fold
binding and inhibition of spores, reversibility [3]: irreversibly
